# From publication PMC4745691, “New therapeutic strategies in neuroblastoma: combined targeting of a novel tyrosine kinase inhibitor and liposomal siRNAs against ALK” (Oncotarget, 2015)
# Assay: Tolerability in subcutaneous NB model (MTD, adverse effects, body weight)
# Assay type: in vivo
# Details: 50 mg/kg BID oral gavage, NB-bearing mice
# Method: In other set of experiments, Balb/c nude mice were xenografted with SH-SY5Y cells as earlier. […] Tumors were measured twice weekly using callipers, and volume was calculated using the formula: Length × Width^2 × 0.5. Body weight was also assessed twice weekly. The experiment was terminated after 3 weeks of treatment.
smiles,measurement,value
"C[C@@H](Oc1cc(-c2cnn(C3CCNCC3)c2)cnc1N)c1c(Cl)ccc(F)c1Cl [crizotinib, Crizotinib]",mice weight over time,No signs of severe weight
